According to patent publication US6933298B2, “Pyridine-2,4-dicarboxylic acid diamides and pyrimidine-4,6-dicarboxylic acid diamides and the use thereof for selectively inhibiting collagenases” (Aventis Pharma Deutschland GmbH, priority 2001, dated 2005):

molecular target: T1, catalytic domain of human collagenase-3 (MMP-13) (Homo sapiens, UniProt P45452); experiment: Enzymic activity of the catalytic domain of human collagenase-3 (MMP-13), fluorogenic substrate; assay type: biochemical; conditions: activated with APMA, pH 7.5, read-out: IC50 MMP13
T1 construct: Determining the enzymic activity of the catalytic domain of human collagenase-3 (MMP-13); purchased INVITEK, Berlin 30 100 803
Description: Determining the enzymic activity of the catalytic domain of human collagenase-3 (MMP-13).
Activation of the proenzyme:
2 parts by volume of proenzyme are incubated with 1 part by volume of APMA solution at 37° C. for 1.5 hours. The APMA solution is prepared from a 10 mmol/l solution of p-aminophenylmercuric acetate in 0.1 mmol/l NaOH by diluting it with 3 parts by volume of Tris/HCl buffer, pH 7.5 (see below). The pH is adjusted to between 7.0 and 7.5 by adding 1 mmol/l HCl.
In order to measure the enzyme activity, 10 μl of enzyme solution are incubated for 15 minutes with 10 μl of a buffered 3% (v/v) solution of dimethyl sulfoxide (reaction 1). In order to measure the enzyme inhibitor activity, 10 μl of enzyme solution are incubated with 10 μl of a buffered 3% (v/v) solution of dimethyl sulfoxide which contains the enzyme inhibitor (reaction 2).
The enzyme activity is presented as increase in extinction/minute.
The buffer solution contains 0.05% Brij (Sigma, Deisenhofen, Germany) and also 0.1 mol of Tris/HCl/l, 0.1 mol of NaCl/1 and 0.01 mol of CaCl2/l (pH=7.5).
The substrate solution contains 0.75 mmol of the fluorogenic substrate (7-methoxycoumarin-4-yl)acetyl-Pro-Leu-Gly-Leu-3-(2′,4′-dinitrophenyl)-L-2,3-diaminopropionyl-Ala-Arg-NH2/I(Bachem, Heidelberg, Germany).

Row | Compound | IC50
1 | O=C(NCc1ccc(F)c(Cl)c1)c1cc(C(=O)NCc2ccc(F)c(Cl)c2)ncn1 [Example 2, Pyrimidine-4,6-dicarboxylic acid bis(3-chloro-4-fluorobenzylamide)] | 23 nM
2 | O=C(NCc1ccc(Cl)cc1)c1cc(C(=O)NCc2ccc(Cl)cc2)ncn1 [Example 3] | 5600 nM
3 | O=C(NCc1ccccc1)c1ccnc(C(=O)NCc2ccccc2)c1 [Example 4] | 3400 nM
4 | Cc1ccc(CNC(=O)c2cc(C(=O)NCc3ccc(C)cc3)ncn2)cc1 [Example 5] | 2000 nM
5 | O=C(NCc1cccc(OC(F)(F)F)c1)c1cc(C(=O)NCc2cccc(OC(F)(F)F)c2)ncn1 [Example 6] | 700 nM
6 | O=C(NCc1ccc(F)cc1)c1ccnc(C(=O)NCc2ccc(F)cc2)c1 [Example 7] | 620 nM
7 | Cc1cccc(CNC(=O)c2ccnc(C(=O)NCc3cccc(C)c3)c2)c1 [Example 8] | 400 nM
8 | COc1ccc(CNC(=O)c2ccnc(C(=O)NCc3ccc(OC)cc3)c2)cc1 [Example 9] | 320 nM
9 | O=C(NCc1cc(F)cc(F)c1)c1cc(C(=O)NCc2cc(F)cc(F)c2)ncn1 [Example 10] | 300 nM
10 | O=C(NCc1cccc(C(F)(F)F)c1)c1cc(C(=O)NCc2cccc(C(F)(F)F)c2)ncn1 [Example 11] | 300 nM

Results, then the compound that gave them:

Row | IC50 | Compound
11 | 260 nM | O=C(NCc1cccc(Cl)c1)c1ccnc(C(=O)NCc2cccc(Cl)c2)c1 [Example 12]
12 | 210 nM | O=C(NCc1ccc(F)c(C(F)(F)F)c1)c1cc(C(=O)NCc2ccc(F)c(C(F)(F)F)c2)ncn1 [Example 13]
13 | 200 nM | O=C(NCc1cccc(F)c1)c1cc(C(=O)NCc2cccc(F)c2)ncn1 [Example 14]
14 | 190 nM | O=C(NCc1ccc(F)cc1)c1cc(C(=O)NCc2ccc(F)cc2)ncn1 [Example 15]
15 | 105 nM | O=C(NCc1ccc(F)c(F)c1)c1cc(C(=O)NCc2ccc(F)c(F)c2)ncn1 [Example 16]
16 | 80 nM | COc1ccc(CNC(=O)c2cc(C(=O)NCc3ccc(OC)cc3)ncn2)cc1 [Example 17]
17 | 57 nM | O=C(NCc1cccc(Cl)c1)c1cc(C(=O)NCc2cccc(Cl)c2)ncn1 [Example 19]
18 | 14 nM | O=C(NCc1ccc2c(c1)OCO2)c1cc(C(=O)NCc2ccc3c(c2)OCO3)ncn1 [Example 20]
19 | 10 nM | COc1cccc(CNC(=O)c2cc(C(=O)NCc3cccc(OC)c3)ncn2)c1 [Example 21]
20 | 9 nM | O=C(NCc1ccc2c(c1)CCO2)c1cc(C(=O)NCc2ccc3c(c2)CCO3)ncn1 [Example 22]
